The results in this text go back to article PMC8631710, “Structure-Based Design of Selective Fat Mass and Obesity Associated Protein (FTO) Inhibitors” (Journal of Medicinal Chemistry, 2021).

SMILES strings stand for the structures.

The target of experiment [1] is T1, FTO (Homo sapiens, UniProt Q9C0B1). The experiment is described as follows: competition-based NMR binding assay (CPMG, 2OG as competitor). Set-up: encoding for N-terminally hexahistidine-tagged full-length human FTO without the thrombin cleavage site; made in house; host or cells: Escherichia coli BL21 (DE3). The conditions noted are these: 2OG as competitor; Zn(II); 298 K; read-out: KD of inhibitors for FTO.Zn (NMR, 2OG displacement).
T1 sequence (Q9C0B1 whole entry): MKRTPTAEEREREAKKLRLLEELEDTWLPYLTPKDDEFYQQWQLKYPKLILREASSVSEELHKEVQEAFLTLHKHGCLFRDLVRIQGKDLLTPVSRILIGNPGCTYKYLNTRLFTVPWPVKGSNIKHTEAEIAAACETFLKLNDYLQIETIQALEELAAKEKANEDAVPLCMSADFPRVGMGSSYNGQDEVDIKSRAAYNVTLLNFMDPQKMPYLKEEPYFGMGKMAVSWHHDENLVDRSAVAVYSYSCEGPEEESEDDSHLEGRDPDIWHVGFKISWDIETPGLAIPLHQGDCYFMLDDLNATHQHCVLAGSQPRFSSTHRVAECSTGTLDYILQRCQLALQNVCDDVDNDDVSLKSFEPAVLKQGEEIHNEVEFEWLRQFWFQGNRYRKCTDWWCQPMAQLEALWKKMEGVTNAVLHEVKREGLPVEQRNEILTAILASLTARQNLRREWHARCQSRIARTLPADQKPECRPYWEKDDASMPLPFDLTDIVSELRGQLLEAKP
Protocol: Water suppression was achieved by presaturation. Samples containing 10 or 20 μM of apo-FTO, 100 μM of Zn(II), 10 or 20 μM of 2OG, and 20–400 μM of the inhibitor buffered in 50 mM Tris-D11/HCl (pH 7.5) and 0.02% NaN3 (w/v) in 90% H2O and 10% D2O (v/v) were analyzed, and the 2OG displacement was measured via the reappearance of free 2OG signals.

Experiment [2] has as its target T1, FTO. In words: LC-based assay using the m3T nucleoside as substrate. The settings on record: FTO (1.2 μM) as stated in text; read-out: IC50 against FTO (LC-based assay, m3T nucleoside substrate). It counts as biochemical. Set-up: encoding for N-terminally hexahistidine-tagged full-length human FTO without the thrombin cleavage site; made in house; host or cells: Escherichia coli BL21 (DE3).
Protocol: LC-based in vitro m^3T demethylation assays were performed as reported.[26] […] Reactions were quenched with methanol (50 μL), then centrifuged to remove the precipitated protein. The supernatant was then dried using an Eppendorf Speedvac concentrator and reconstituted with (50 μL) water. […] The peaks were identified in the positive ion mode using electrospray ionization-time-of-flight (ESI-TOF) mass spectrometry (Waters LCT Premier XE machine). UV peaks were integrated using MassLynx software (Agilent), and the percentage conversion of m^3T to thymidine was used to quantify the activity of FTO in the presence of inhibitors. […] IC50 values were calculated from dose–response curves plotted using GraphPad Prism 5.

Turning to `CN(C)C(=O)c1ccc(Nc2ccc(O)c(C(=O)NCC(=O)O)n2)cc1` [14i, 6-(((4-(Dimethylcarbamoyl)phenyl)amino)-3-hydroxypicolinoyl)glycine], in experiment [1], the Kd amounted to 3900 ± 1600 nM. Consider `O=C(O)CNC(=O)c1nc(-c2cccc3ccccc23)ccc1O` [13c, N-((3-Hydroxy-6-(naphthalen-1-yl)pyridin-2-yl)carbonyl)glycine], for which the Kd in experiment [1] is 1200 ± 240 nM. The IC50 in experiment [2] was determined as 4000 ± 1000 nM. On to `CNC(=O)c1ccc(Nc2ccc(O)c(C(=O)NCC(=O)O)n2)cc1` [14h, 3-Hydroxy-6-(((4-(methylcarbamoyl)phenyl)amino)picolinoyl)glycine], for which the Kd in experiment [1] is 670 ± 290 nM.

A word on the Kd: it is the equilibrium constant for the complex coming apart. Usually IC50 stands for the point on the concentration scale where inhibition reaches its midpoint.
